The results in this text go back to PMC5712788, “DM9 Domain Containing Protein Functions As a Pattern Recognition Receptor with Broad Microbial Recognition Spectrum” (Frontiers in Immunology, 2017).

For this assay, the target named is T1, CgDM9CP-1 (rCgDM9CP-1) (Magallana gigas, UniProt K1QRB6).
T1 construct: gene CGI_10011001; recombinant, E. coli Transetta (DE3); two DM9 domains; mutants in pET-28a with N-terminal 6xHis; 5MH2 is D22A, 5MH3 is K43A
T1 sequence (K1QRB6 1-143): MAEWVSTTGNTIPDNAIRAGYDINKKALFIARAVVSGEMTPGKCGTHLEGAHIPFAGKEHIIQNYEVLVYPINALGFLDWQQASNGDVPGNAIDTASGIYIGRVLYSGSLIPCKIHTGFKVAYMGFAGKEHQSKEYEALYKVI
In words: ITC. It is filed as binding. Particulars: 25°C, PBS (pH 7.2 in table, 7.4 in methods), N = 1. An excerpt: ITC on CgDM9CP-1 (rCgDM9CP-1)

On to `OC[C@H]1OC(O)[C@@H](O)[C@@H](O)[C@@H]1O` (stereo partly drawn) [D-mannose], for which the Kd worked out at 123 ± 19.7 µM and the Value is on record as 8.16 ± 0.19 10^3 M^−1.
